Activity calls are given as the source filed them. How the calls were made is not given here.
Experiment: non-covalent RecA intein splicing inhibitors, dose response, biochemical, cell-free, fluorescence, secondary screen (AID 449750)

Q: For O=c1cc(-c2ccc(Br)cc2)[nH][nH]1, which AC50 is on record?
A: The AC50 was 13.4 µM.

Q: For CCOC(=O)c1c(CC(C)C)csc1NC(=O)CCl, which AC50 is on record?
A: Its AC50 is 3.33 µM.

Q: Which AC50 does the source give for Cc1ccc(C)c(NC(=O)CSc2n[nH]c(-c3ccccn3)n2)c1 here?
A: The AC50 was > 38 µM (inactive).

Q: Which AC50 does the source give for Cc1cc(C(=O)N/N=C/c2c(C)[nH]n(-c3ccccc3)c2=O)n[nH]1 here?
A: The AC50 was 3.74 µM.

Q: Which AC50 does the source give for CN(C1=C(NC(=O)c2ccc(Cl)cc2)C(=O)c2ccccc2C1=O)c1ccccc1 here?
A: The AC50 was 15 µM.

Q: With Cc1ccccc1C(CC(=O)c1cccs1)C(C#N)C#N (configuration not stated) as the compound, how does the AC50 read?
A: The AC50 was 6.53 µM.

Q: With O=C1C(Cl)=C(NCc2cccnc2)C(=O)c2ccccc21 as the compound, how does the AC50 read?
A: Its AC50 is 13.6 µM.

Q: With COC(=O)c1nc(-c2ccc3c(n2)C(=O)C(N)=C(OC)C3=O)c(N)c(-c2ccc(OC)c(OC)c2O)c1C as the compound, how does the AC50 read?
A: The AC50 was 0.763 µM.

Q: For CCOc1cc(C(c2c(C)[nH][nH]c2=O)c2c(C)[nH][nH]c2=O)ccc1OCc1ccc([N+](=O)[O-])cc1, which AC50 is on record?
A: Its AC50 is 6.09 µM.

Q: Which AC50 does the source give for CCOc1cc(C(c2c(C)[nH][nH]c2=O)c2c(C)[nH][nH]c2=O)ccc1O here?
A: Its AC50 is 5.54 µM.

Q: With COc1ccc(C(N)c2nccc3cc(OC)c(OC)cc23)cc1OC (configuration not stated) as the compound, how does the AC50 read?
A: The AC50 was > 38 µM (inactive).

Q: With Cc1ccc(C)c(NC2=C(Cl)C(=O)OC2OC(=O)c2ccco2)c1 (configuration not stated) as the compound, how does the AC50 read?
A: Its AC50 is > 38 µM (inactive).

Q: With CCc1[nH]nc2c1C(Cc1ccccc1)C(C#N)=C(N)O2 (configuration not stated) as the compound, how does the AC50 read?
A: Its AC50 is > 38 µM (inactive).

Q: Which AC50 does the source give for CCCCCCCN(C(=O)CCl)c1ccccc1C here?
A: The AC50 was 1.89 µM.

Q: For COc1cc2c(cc1OC)-c1c(OC)c(OC)cc3c1C(C2)N(C)CC3 (configuration not stated), which AC50 is on record?
A: Its AC50 is 10.3 µM.

Q: With O=C1c2ccccc2-c2c1nc1c([n+]2[O-])CCCC1 as the compound, how does the AC50 read?
A: The AC50 was 31.3 µM.

Q: With Cc1cccc(C(=O)c2cnc3ccccc3c2-c2ccccc2)c1 as the compound, how does the AC50 read?
A: The AC50 was 14.4 µM.

Q: Which AC50 does the source give for Cc1cccc(CS(=O)(=O)c2nnc([C@H](Cc3ccccc3)NC(=O)OC(C)(C)C)o2)c1 here?
A: Its AC50 is > 38 µM (inactive).

Q: For O=c1cc(-c2ccc(Cl)cc2)[nH][nH]1, which AC50 is on record?
A: The AC50 was 14.2 µM.

Q: For CCCCOc1ccc(C(=O)C(CN2CCOCC2)c2ccccc2)cc1 (configuration not stated), which AC50 is on record?
A: The AC50 was 7.35 µM.

Q: For CC(=O)c1cccc(-c2ccc3c(=O)[nH]c(Nc4ccccc4)cc3c2)c1, which AC50 is on record?
A: The AC50 was 6.06 µM.

Q: With Cc1cc2nc(Sc3c([N+](=O)[O-])nc(C)n3Cc3ccccc3)[nH]c2cc1C as the compound, how does the AC50 read?
A: The AC50 was > 38 µM (inactive).

Q: With CCOC(=O)c1nn(-c2ccccc2C)c(=O)c2c(N)scc12 as the compound, how does the AC50 read?
A: The AC50 was > 38 µM (inactive).

Q: For COc1ccc(/C=C2/C(=O)N(c3ccccc3)N=C2C)cc1, which AC50 is on record?
A: The AC50 was 5.27 µM.

Q: With Oc1[nH]c2ccc(Br)cc2c1N=NC(=S)N1CCOCC1 as the compound, how does the AC50 read?
A: The AC50 was > 38 µM (inactive).

Q: With COc1ccc(S(=O)(=O)/N=C2\C=C(Nc3ccc(O)cc3)C(=O)c3ccccc32)cc1 as the compound, how does the AC50 read?
A: The AC50 was 2.53 µM.

Q: Which AC50 does the source give for CCOC(=O)c1nnc(-c2ccccc2)nc1Sc1c(Cl)cccc1Cl here?
A: The AC50 was > 38 µM (inactive).

Q: With Cc1ccc(-n2[nH]c(C)c(/C=N/NC(=O)c3ccc([N+](=O)[O-])cc3)c2=O)c(C)c1 as the compound, how does the AC50 read?
A: The AC50 was 5.27 µM.

Q: With O=C(CCCN1C(=O)/C(=C\c2cccs2)SC1=S)Nc1ccc(O)cc1 as the compound, how does the AC50 read?
A: The AC50 was > 38 µM (inactive).

Q: For COc1ccc(-c2cc(CNC(=O)CCl)on2)cc1, which AC50 is on record?
A: Its AC50 is 16.1 µM.

Q: With O=C1NC(c2ccc(-c3ccccc3[N+](=O)[O-])o2)C(C(=O)c2ccc(F)cc2)C(O)(C(F)(F)F)N1 (configuration not stated) as the compound, how does the AC50 read?
A: The AC50 was 34.4 µM.

Q: For O=[N+]([O-])c1ccc(N2CCCC(C(F)(F)F)C2)c2ccncc12 (configuration not stated), which AC50 is on record?
A: The AC50 was > 38 µM (inactive).

Q: Which AC50 does the source give for N=C1/C(=C\c2ccc(OC(=O)c3ccc(F)cc3)cc2)C(=O)N=C2SC(N3CCOCC3)=NN12 here?
A: Its AC50 is > 38 µM (inactive).

Q: For CN(Cc1ccc(Cl)s1)C(=O)CCl, which AC50 is on record?
A: Its AC50 is 19.3 µM.

Q: For O=C1NCCCC2c3c(cc(Br)c(O)c3Br)OC12N1CCCCC1 (configuration not stated), which AC50 is on record?
A: The AC50 was > 38 µM (inactive).

Q: Which AC50 does the source give for CCOC(=O)c1c(NC(=O)/C=C/C(=O)O)sc(C)c1-c1ccc(F)cc1 here?
A: Its AC50 is 18 µM.

Q: With O=C(c1cccs1)[C@@H]1[C@@H]2C(=O)N(Cc3ccc4c(c3)OCO4)C(=O)[C@@H]2C2c3ccccc3C=CN21 (some centres not stated) as the compound, how does the AC50 read?
A: Its AC50 is 3.81 µM.

Q: For CCC(C)N(CC(=O)Nc1cccc(C)c1C)C(=O)CCl (configuration not stated), which AC50 is on record?
A: The AC50 was 30.2 µM.

Q: Which AC50 does the source give for CC1=NN(c2cccc(Cl)c2)C(=O)C12CC(C)=C(C)CS2 (configuration not stated) here?
A: Its AC50 is 21.7 µM.

Q: For Cc1cccc(N2CC(C(=O)OCC(=O)c3ccc(OC(=O)c4cccs4)cc3)CC2=O)c1C (configuration not stated), which AC50 is on record?
A: The AC50 was > 38 µM (inactive).

Q: With CCOC(=O)c1ccc(CC2S/C(=C(\C#N)C(C)=O)NC2=O)cc1 (configuration not stated) as the compound, how does the AC50 read?
A: Its AC50 is > 38 µM (inactive).

Q: Which AC50 does the source give for O=S(=O)(Nc1c(O)ccc2ccccc12)c1ccc(F)cc1 here?
A: The AC50 was 13.3 µM.

Q: For COC(=O)c1c(NC(=O)/C=C/C(=O)O)sc(C)c1-c1ccc(C)c(C)c1, which AC50 is on record?
A: Its AC50 is 26.5 µM.

Q: Which AC50 does the source give for Nc1nc(-c2ccco2)nn1C(=O)c1ccc(Cl)cc1 here?
A: The AC50 was > 38 µM (inactive).

Q: Which AC50 does the source give for COc1ccc(C(=O)c2c(C(F)(F)F)oc3c2C(=O)c2ccccc2C3=O)cc1 here?
A: Its AC50 is 0.93 µM.

Q: With N#CC1=C(N)Oc2n[nH]c(-c3cccs3)c2C1c1ccoc1 (configuration not stated) as the compound, how does the AC50 read?
A: The AC50 was > 38 µM (inactive).

Q: For COc1cc(C(=O)c2nccc3cc(OC)c(OC)cc23)c([N+](=O)[O-])cc1OC, which AC50 is on record?
A: The AC50 was 18.3 µM.

Q: For CC(=O)Oc1c(Br)cc(N(C(C)=O)S(=O)(=O)c2ccccc2)c2ccccc12, which AC50 is on record?
A: The AC50 was 8.88 µM.

Q: With N#CC1=C(N)Oc2n[nH]c(-c3cccs3)c2C1c1ccsc1 (configuration not stated) as the compound, how does the AC50 read?
A: The AC50 was 3.98 µM.

Q: With Cc1ccc(C(=O)C2C(c3ccc(-c4ccccc4[N+](=O)[O-])o3)NC(=O)NC2(O)C(F)(F)F)cc1 (configuration not stated) as the compound, how does the AC50 read?
A: Its AC50 is 19.9 µM.

Q: For Cc1cc(C)n(-c2ccc([N+](=O)[O-])cc2)n1, which AC50 is on record?
A: Its AC50 is > 38 µM (inactive).

Q: For C=CCNC1=C(Cl)C(=O)c2ccccc2C1=O, which AC50 is on record?
A: The AC50 was 18.4 µM.
